We go through 13 molecules from patent publication US10226451B2, “Substituted bicyclic compounds as bromodomain inhibitors” (ZENITH EPIGENETICS LTD, priority 2013, dated 2019).

Experiment [1] concerns Human AML MV-4-11 cells. The experiment in a line: Inhibition of cell proliferation in MV4-11 cells (CellTiter Aqueous One). In kind it is cell-based. The note with it: 72 h. As for the experimental part:
In this example, cell titer in MV4-11 cells were quantitated to measure the inhibition of proliferation when treated with a compound of the present disclosure.
MV4-11 cells (CRL-9591) were plated at a density of 5×10^4 cells per well in 96 well flat bottom plates and treated with increasing concentrations of test compound or DMSO (0.1%) in IMDM media containing 10% FBS and penicillin/streptomycin. Triplicate wells were used for each concentration and a well containing only media was used as a control. Plates were incubated at 37° C., 5% CO2 for 72 h before adding 20 μL of the CellTiter Aqueous One Solution (Promega) to each well and incubated at 37° C., 5% CO2 for an additional 3-4 h. The absorbance was read at 490 nm in a spectrophotometer and the percentage of cell titer relative to DMSO-treated cells was calculated after correcting for background by subtracting the blank well's signal. IC50 values were calculated using the Graph Pad Prism software.

Experiment [2] deals with hIL-6 mRNA in U937 cells. The experiment in a line: Inhibition of hIL-6 mRNA transcription in LPS-stimulated U937 cells. The class given is cell-based. The note with it: Homo sapiens, U-937, PMA-differentiated U937 cells, LPS 1 ug/mL, 3 h, read-out: IL-6 activity. As for the experimental part: In this example, hIL-6 mRNA in tissue culture cells were quantitated to measure the transcriptional inhibition of hIL-6 when treated with a compound of the present disclosure.
Human leukemic monocyte lymphoma U937 cells (CRL-1593.2) were plated at a density of 3.2×10^4 cells per well in a 96-well plate in 100 μL RPMI-1640 containing 10% FBS and penicillin/streptomycin, and differentiated into macrophages for 3 days in 60 ng/mL PMA ([…]) at 37° C. in 5% CO2 prior to the addition of compound. The cells were pretreated for 1 h with increasing concentrations of test compound in 0.1% DMSO prior to stimulation with 1 ug/mL lipopolysaccharide from Escherichia coli. Triplicate wells were used for each concentration. The cells were incubated at 37° C., 5% CO2 for 3 h before the cells were harvested. At time of harvest, media was removed and cells were rinsed in 200 μL PBS. Cells were harvested using the mRNA Catcher PLUS kit according to manufacturer's instructions. The eluted mRNA was then used in a one-step quantitative real-time PCR reaction using components of the RNA UltraSense™ One-Step Kit (Life Technologies) together with Applied Biosystems TaqMan® primer-probes for hIL-6 and Cyclophilin. Real-time PCR plates were run on a ViiA™7 real time PCR machine (Applied Biosystems), data was analyzed, normalizing the Ct values for hIL-6 to an internal control, prior to determining the fold expression of each sample, relative to the control.

Experiment [3] addresses T1, Brd4 bromodomain 1 (BRD4(1)) (Homo sapiens, UniProt O60885).
T1 construct: made in house; host or cells: E. coli BL21(DE3)
The experiment in a line: Inhibition of tetra-acetylated histone H4 binding to Brd4 bromodomain 1 (HTRF/FRET). The note with it: tetra-acetylated histone H4 peptide, His-tagged bromodomain 200 nM, 2 h. The method, then: Proteins were cloned and overexpressed with a N-terminal 6×His tag, then purified by nickel affinity followed by size exclusion chromatography. Briefly, E. coli BL21(DE3) cells were transformed with a recombinant expression vector encoding N-terminally Nickel affinity tagged bromodomains from Brd2, Brd3, Brd4. Cell cultures were incubated at 37° C. with shaking to the appropriate density and induced overnight with IPTG. The supernatant of lysed cells was loaded onto Ni-IDA column for purification. Eluted protein was pooled, concentrated and further purified by size exclusion chromatography. Fractions representing monomeric protein were pooled, concentrated, aliquoted, and frozen at −80° C. for use in subsequent experiments.
Binding of tetra-acetylated histone H4 and BET bromodomains was confirmed by a Homogenous Time Resolved Fluorescence Resonance Energy Transfer (HTRF®) method. N-terminally His-tagged bromodomains (200 nM) and biotinylated tetra-acetylated histone H4 peptide (25-50 nM, Millipore) were incubated in the presence of Europium Cryptate-labeled streptavidin (Cisbio Cat. #610SAKLB) and XL665-labeled monoclonal anti-His antibody (Cisbio Cat. #61HISXLB) in a white 96 well microtiter plate (Greiner). For inhibition assays, serially diluted test compound was added to these reactions in a 0.2% final concentration of DMSO. Duplicate wells were used for each concentration tested. Final buffer concentrations were 30 mM HEPES pH 7.4, 30 mM NaCl, 0.3 mM CHAPS, 20 mM phosphate pH 7.0, 320 mM KF, 0.08% BSA. After a 2 h incubation at room temperature, fluorescence was measured at 665 and 620 nm with a SynergyH4 plate reader (Biotek). The binding inhibitory activity was shown by a decrease in 665 nm relative to 620 nm fluorescence. IC50 values were determined from a dose response curve.
For orientation: Time-resolved FRET reads energy transfer from a long-lived donor to a nearby acceptor.

Experiment [4] relates to c-myc in Human AML MV4-11 cells. The experiment in a line: Inhibition of c-MYC expression (mRNA, real-time PCR) in MV4-11 cells. The note with it: 3 h, mRNA by real-time PCR. The class given is cell-based. As for the experimental part: MV4-11 cells (CRL-9591) were plated at a density of 2.5×10^4 cells per well in 96 well U-bottom plates and treated with increasing concentrations of test compound or DMSO (0.1%) in IMDM media containing 10% FBS and penicillin/streptomycin, and incubated for 3 h at 37° C. Triplicate wells were used for each concentration. Cells were pelleted by centrifugation and harvested using the mRNA Catcher PLUS kit according to manufacturer's instructions. The eluted mRNA isolated was then used in a one-step quantitative real-time PCR reaction, using components of the RNA UltraSense™ One-Step Kit (Life Technologies) together with Applied Biosystems TaqMan® primer-probes for cMYC and Cyclophilin. Real-time PCR plates were run on a ViiA™7 real time PCR machine (Applied Biosystems), data was analyzed, normalizing the Ct values for hMYC to an internal control, prior to determining the fold expression of each sample, relative to the control.
A general note: In qPCR the cycle at which signal appears reflects the starting amount.

The structures appear in SMILES notation. Bounds are passed on as bounds.

Consider `Cc1noc(C)c1-c1cc(-c2c(C)nn(C)c2C)c2[nH]c(=S)[nH]c2c1` [Example Compound 23, 6-(3,5-dimethylisoxazol-4-yl)-4-(1,3,5-trimethyl-1H-pyrazol-4-yl)-1H-benzo[d]imidazole-2(3H)-thione], for which the IC50 in experiment [1], in experiment [2], in experiment [3] and in experiment [4] was ≤ 300 nM in each case.
On to `Cc1nn(C)c(C)c1Nc1cc(-c2c(C)noc2C)cc2[nH]c(=O)n(C)c12` [Example Compound 26, 5-(3,5-dimethylisoxazol-4-yl)-1-methyl-7-((1,3,5-trimethyl-1H-pyrazol-4-yl)amino)-1H-benzo[d]imidazol-2(3H)-one], for which the IC50 was 300 to 3000 nM in experiment [1], 300 to 3000 nM in experiment [2], ≤ 300 nM in experiment [3] and ≤ 300 nM in experiment [4].
For `Cc1ncccc1Nc1cc(-c2c(C)noc2C)cc2[nH]c(=O)n(C)c12` [Example Compound 27, 5-(3,5-dimethylisoxazol-4-yl)-1-methyl-7-((2-methylpyridin-3-yl)amino)-1H-benzo[d]imidazol-2(3H)-one], the IC50 was 300 to 3000 nM in experiment [1], ≤ 300 nM in experiment [2], ≤ 300 nM in experiment [3] and ≤ 300 nM in experiment [4].
Consider `Cc1ccc(C(N)=O)cc1-c1cc(-c2c(C)noc2C)cc2[nH]c(=O)n(C)c12` [Example Compound 29, 3-(6-(3,5-dimethylisoxazol-4-yl)-3-methyl-2-oxo-2,3-dihydro-1H-benzo[d]imidazol-4-yl)-4-methylbenzamide], for which the IC50 in experiment [1] is 300 to 3000 nM; in experiment [2] it was 300 to 3000 nM; in experiment [3], ≤ 300 nM; in experiment [4], ≤ 300 nM.
As for `Cc1ncccc1Oc1cc(-c2c(C)noc2C)cc2[nH]c(=O)n(C)c12` [Example Compound 31, 5-(3,5-dimethylisoxazol-4-yl)-1-methyl-7-((2-methylpyridin-3-yl)oxy)-1H-benzo[d]imidazol-2(3H)-one], the IC50 is 300 to 3000 nM in experiment [1], ≤ 300 nM in experiment [2], ≤ 300 nM in experiment [3] and 300 to 3000 nM in experiment [4].
As for `Cc1n[nH]c(C)c1-c1cc(-c2c(C)noc2CO)cc2[nH]c(=O)n(C)c12` [Example Compound 32, 7-(3,5-dimethyl-1H-pyrazol-4-yl)-5-(5-(hydroxymethyl)-3-methylisoxazol-4-yl)-1-methyl-1H-benzo[d]imidazol-2(3H)-one], the IC50 in experiment [1] is 300 to 3000 nM; in experiment [2] it was ≤ 300 nM; in experiment [3] it was ≤ 300 nM; in experiment [4], ≤ 300 nM.
Consider `Cc1noc(C)c1Nc1cc(-c2c(C)noc2C)cc2[nH]c(=O)n(C)c12` [Example Compound 33, 5-(3,5-dimethylisoxazol-4-yl)-7-((3,5-dimethylisoxazol-4-yl)amino)-1-methyl-1H-benzo[d]imidazol-2(3H)-one], for which the IC50 in experiment [1] is 300 to 3000 nM; in experiment [2], 300 to 3000 nM; in experiment [3] it was ≤ 300 nM; in experiment [4], ≤ 300 nM.
With `Cc1noc(C)c1-c1cc(-c2cccc3ccccc23)c2c(c1)[nH]c(=O)n2C` [Example Compound 34, 5-(3,5-dimethylisoxazol-4-yl)-1-methyl-7-(naphthalen-1-yl)-1H-benzo[d]imidazol-2(3H)-one], the IC50 in experiment [1] is 300 to 3000 nM; in experiment [2] it was ≤ 300 nM; in experiment [3] it was ≤ 300 nM; in experiment [4], ≤ 300 nM.
Turning to `Cc1cnccc1-c1cc(-c2c(C)noc2C)cc2[nH]c(=O)n(C)c12` [Example Compound 38, 5-(3,5-dimethylisoxazol-4-yl)-1-methyl-7-(3-methylpyridin-4-yl)-1H-benzo[d]imidazol-2(3H)-one], the IC50 in experiment [1] was 300 to 3000 nM; in experiment [2], 300 to 3000 nM; in experiment [3], ≤ 300 nM; in experiment [4], 300 to 3000 nM.
Take `Cc1cncc(C)c1-c1cc(-c2c(C)noc2C)cc2[nH]c(=O)n(C)c12` [Example Compound 39, 5-(3,5-dimethylisoxazol-4-yl)-7-(3,5-dimethylpyridin-4-yl)-1-methyl-1H-benzo[d]imidazol-2(3H)-one]: the IC50 is 300 to 3000 nM in experiment [1], ≤ 300 nM in experiment [2], ≤ 300 nM in experiment [3] and ≤ 300 nM in experiment [4].
As for `Cc1ccccc1-c1cc(-c2c(C)noc2C)cc2[nH]c(=O)n(C)c12` [Example Compound 40, 5-(3,5-dimethylisoxazol-4-yl)-1-methyl-7-(o-tolyl)-1H-benzo[d]imidazol-2(3H)-one], the IC50 in experiment [1] was 300 to 3000 nM; in experiment [2] it was 300 to 3000 nM; in experiment [3], ≤ 300 nM; in experiment [4], ≤ 300 nM.
For the molecule `Cc1nc(C)c(-c2cc(-c3c(C)noc3C)cc3[nH]c(=O)n(C)c23)s1` [Example Compound 44, 5-(3,5-dimethylisoxazol-4-yl)-7-(2,4-dimethylthiazol-5-yl)-1-methyl-1H-benzo[d]imidazol-2(3H)-one], the IC50 in experiment [1] lay within 3000 to 30000 nM; in experiment [2] it was 300 to 3000 nM; in experiment [3], 300 to 3000 nM; in experiment [4], 300 to 3000 nM.
As for `COc1nc(C)ccc1-c1cc(-c2c(C)noc2C)cc2[nH]c(=O)n(C)c12` [Example Compound 45, 5-(3,5-dimethylisoxazol-4-yl)-7-(2-methoxy-6-methylpyridin-3-yl)-1-methyl-1H-benzo[d]imidazol-2(3H)-one], the IC50 was 300 to 3000 nM in experiment [1], 300 to 3000 nM in experiment [2], 300 to 3000 nM in experiment [3] and ≤ 300 nM in experiment [4].
